Results on 10 molecules are retold here after patent US9994616B2, “c-Met protein agonist” (The University of Tokyo, priority 2013, dated 2018).

Data set [1] in a line: Stability of thioether macrocyclic peptide in human serum pool (LC-MS). It is filed as in vitro ADME. The following applies: for remaining at 4 h, 1 μM: Table 9; for remaining at 4 h, 1 μM / remaining at 1 h, 1 μM: human serum pool; for remaining at 4 h, 1 μM / Stability in human serum (undegraded portion/time) / remaining at 1 h, 1 μM: 37° C.; for Stability in human serum (undegraded portion/time): Table 10; for Stability in serum (in words): human serum; for remaining at 1 h, 1 μM: Table 8. The protocol:
A DMSO solution of the thioether macrocyclic peptide to be evaluated was dissolved in a human serum pool to give a concentration of 1 μM. The human serum pool containing the thioether macrocyclic peptide thus prepared was incubated at 37° C.
After an elapse of the evaluation time, the human serum pool containing the thioether macrocyclic peptide was placed on ice and a peptide serving as an internal standard was added and mixed to give a concentration of 1 μM. The resulting mixture was added to a solid-phase extraction column (Hyper Sep SPE column, Thermo Scientific), washed with a 5% aqueous acetonitrile solution containing 0.1% TFA, and then purified by eluting with a 70% aqueous acetonitrile solution containing 0.1% TFA.
The molecular weight of the purified product was analyzed using LC-MS and the cleavage site in the serum was identified. In addition, the thioether macrocyclic peptide which had remained without being cleaved was quantitatively determined by comparing an amount relative to the internal standard at every incubation time.

The target of data set [2] is c-Met-Fc (Homo sapiens, UniProt P08581). As to the kind of experiment: Binding ability by surface plasmon resonance (SPR, Biacore). As to conditions: for kon: read-out: ka. The protocol: Binding ability of the thioether macrocyclic peptide was evaluated by SPR measurement using Biacore (GE Healthcare).
As a sensor chip, Sensor Chip CM5 was used and an anti-IgG antibody was immobilized on a measurement lane and a control lane by using Human Antibody Capture Kit.
On the measurement lane was immobilized c-Met-Fc, while on the control lane was immobilized Fc protein.
As a running buffer, HBS-EP+ buffer containing 0.1% DMSO was used and a dissociation constant of the thioether macrocyclic peptide was calculated at 5 different concentrations by using the single-kinetics method.

SMILES strings stand for the structures. Like-named read-outs stand apart in the source and are kept apart here. Where a SMILES comes first, the peptide text is derived from it. Bridges are numbered along the chain shown (N, C = ends). [ ]: non-standard residue; d: D form. NMeR = CN[C@@H](CCCNC(=N)N)C(=O)O; NMeF = CN[C@@H](Cc1ccccc1)C(=O)O; NMeT = CN[C@H](C(=O)O)[C@@H](C)O; NMeN = CN[C@@H](CC(N)=O)C(=O)O; NMeC = CN[C@@H](CS)C(=O)O

Chain of c-Met-Fc (P08581 with tags, fused parts or gaps limits assumed): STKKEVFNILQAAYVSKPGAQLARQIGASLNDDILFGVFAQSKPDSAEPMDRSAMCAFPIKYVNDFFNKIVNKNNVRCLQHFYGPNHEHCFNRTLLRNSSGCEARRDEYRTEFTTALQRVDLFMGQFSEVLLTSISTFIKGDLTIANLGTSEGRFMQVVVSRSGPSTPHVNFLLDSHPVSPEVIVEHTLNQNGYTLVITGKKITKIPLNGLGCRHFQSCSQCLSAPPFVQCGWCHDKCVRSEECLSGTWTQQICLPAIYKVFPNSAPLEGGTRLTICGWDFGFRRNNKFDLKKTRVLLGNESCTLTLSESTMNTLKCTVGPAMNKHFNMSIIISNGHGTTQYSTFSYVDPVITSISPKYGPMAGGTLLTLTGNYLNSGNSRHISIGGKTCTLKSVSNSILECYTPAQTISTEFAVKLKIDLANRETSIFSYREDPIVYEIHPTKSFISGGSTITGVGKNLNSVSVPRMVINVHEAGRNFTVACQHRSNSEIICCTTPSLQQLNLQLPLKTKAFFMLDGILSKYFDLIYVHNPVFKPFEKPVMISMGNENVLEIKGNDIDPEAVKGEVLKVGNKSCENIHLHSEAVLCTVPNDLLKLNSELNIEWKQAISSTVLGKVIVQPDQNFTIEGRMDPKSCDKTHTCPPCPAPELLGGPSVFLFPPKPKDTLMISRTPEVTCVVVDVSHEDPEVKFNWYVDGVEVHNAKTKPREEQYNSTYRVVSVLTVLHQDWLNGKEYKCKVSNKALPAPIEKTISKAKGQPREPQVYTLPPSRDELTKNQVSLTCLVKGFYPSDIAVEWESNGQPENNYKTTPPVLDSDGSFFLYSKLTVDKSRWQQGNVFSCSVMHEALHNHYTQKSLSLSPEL
Chain of c-Met-Fc (P08581 25-307 limits assumed): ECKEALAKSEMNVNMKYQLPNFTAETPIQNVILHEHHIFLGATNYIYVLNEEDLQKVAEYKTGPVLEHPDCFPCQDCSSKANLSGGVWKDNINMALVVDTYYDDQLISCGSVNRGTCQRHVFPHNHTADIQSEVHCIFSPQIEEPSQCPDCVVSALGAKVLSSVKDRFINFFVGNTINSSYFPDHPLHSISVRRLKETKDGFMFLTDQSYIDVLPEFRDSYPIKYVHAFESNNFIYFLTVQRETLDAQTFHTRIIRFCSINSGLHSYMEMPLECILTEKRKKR

Usually amount remaining stands for what is left of the initial amount, in per cent. The low end stands for more turnover, the high end for less turnover. The Kd is the constant that tells how readily two partners part at equilibrium. High values mean weaker binding, low ones tighter binding. For the molecule `CC(C)C[C@@H]1NC(=O)[C@H](CC(N)=O)NC(=O)[C@H](Cc2c[nH]c3ccccc23)NC(=O)[C@H](C(C)C)NC(=O)[C@H](CCC(=O)O)NC(=O)[C@H](Cc2c[nH]cn2)NC(=O)[C@H]([C@@H](C)O)NC(=O)[C@H](CCCNC(=N)N)NC(=O)[C@H](CCCNC(=N)N)N(C)C(=O)[C@H](CC(N)=O)NC(=O)[C@H](Cc2ccccc2)NC(=O)[C@H](CCC(N)=O)NC(=O)[C@H](CCCNC(=N)N)NC(=O)[C@@H](Cc2ccc(O)cc2)NC(=O)CSC[C@@H](C(=O)NCC(N)=O)N(C)C(=O)[C@H](CC(=O)O)NC1=O` [Peptide D4-3NMe] ({CH2CO}-[dY]RQFN[NMeR]RTHEVWNLD[NMeC]G-NH2; thioether N-16), in data set [1] (4 h), the fraction remaining at 4 h, 1 μM was 63% and the “Stability in human serum (undegraded portion/time)” value came to 67%/4 h. For the same molecule, the “Stability in serum (in words)” value in data set [1] was “considerably excellent”. Besides, in data set [2] (Table 9, c-Met-Fc), the affinity, expressed as Kd, was 5.2 nM and the kon was found to be 390000 M⁻¹ s⁻¹.

For the molecule `CC(C)C[C@@H]1NC(=O)[C@H](CC(N)=O)NC(=O)[C@H](Cc2c[nH]c3ccccc23)NC(=O)[C@H](C(C)C)NC(=O)[C@H](CCC(=O)O)NC(=O)[C@H](Cc2c[nH]cn2)NC(=O)[C@H]([C@@H](C)O)NC(=O)[C@H](CCCNC(=N)N)NC(=O)[C@H](CCCNC(=N)N)NC(=O)[C@H](CC(N)=O)NC(=O)[C@H](Cc2ccccc2)NC(=O)[C@H](CCC(N)=O)NC(=O)[C@H](CCCNC(=N)N)NC(=O)[C@@H](Cc2ccc(O)cc2)NC(=O)CSC[C@@H](C(=O)NCC(N)=O)NC(=O)[C@H](CC(=O)O)NC1=O` [Peptide D4-3] ({CH2CO}-[dY]RQFNRRTHEVWNLDCG-NH2; thioether N-16; N-terminus and C-terminus assumed), the fraction remaining at 1 h, 1 μM in data set [1] turned out to be 3.7%. In data set [1] (4 h), this molecule gave a share remaining at 4 h, 1 μM below 3.7%. Further, the “Stability in human serum (undegraded portion/time)” value in data set [1] (2 h) is recorded as 6%/2 h. In addition, the kon in data set [2] (Table 8, c-Met-Fc) was 1.3e+06 M⁻¹ s⁻¹; in data set [2] (Table 10, c-Met-Fc), 2.4e+06 M⁻¹ s⁻¹.

`C[C@@H]1NC(=O)[C@H](Cc2ccc(O)cc2)NC(=O)[C@H](Cc2ccc(O)cc2)NC(=O)[C@H](Cc2c[nH]c3ccccc23)NC(=O)[C@@H](Cc2ccc(O)cc2)NC(=O)CSC[C@@H](C(=O)NCC(N)=O)NC(=O)[C@@H]2CCCN2C(=O)[C@H](Cc2ccccc2)NC(=O)[C@H](C)NC(=O)[C@H](CCCCN)NC(=O)[C@H](Cc2ccc(O)cc2)NC(=O)[C@H]([C@@H](C)O)NC(=O)[C@H](CCC(N)=O)NC(=O)[C@H](CC(=O)O)NC(=O)[C@H](Cc2c[nH]c3ccccc23)NC1=O` [Peptide D5-4] ({CH2CO}-[dY]WYYAWDQTYKAFPCG-NH2; thioether N-15): the “Stability in human serum (undegraded portion/time)” value in data set [1] (2 h) was 97%/2 h. Also, in data set [2] (Table 10, c-Met-Fc), the Kd came out at 4.6 nM and the kon is 4.5e+06 M⁻¹ s⁻¹.

Take `CC[C@H](C)[C@@H]1NC(=O)[C@H](Cc2ccc(O)cc2)NC(=O)CSC[C@@H](C(=O)NCC(N)=O)NC(=O)[C@H]([C@@H](C)O)NC(=O)[C@H]([C@@H](C)CC)NC(=O)[C@H](Cc2ccccc2)NC(=O)[C@H](CCCNC(=N)N)NC(=O)[C@H](Cc2c[nH]c3ccccc23)NC(=O)[C@H](CC(N)=O)NC(=O)[C@@H]2CCCN2C(=O)[C@H](CO)NC(=O)[C@H](CC(N)=O)NC(=O)[C@H](Cc2ccccc2)NC(=O)[C@H](CCC(=O)O)NC(=O)[C@H](CC(N)=O)NC(=O)[C@H](Cc2c[nH]c3ccccc23)NC(=O)[C@H](CO)NC1=O` [Peptide L5-2] ({CH2CO}-YISWNEFNSPNWRFITCG-NH2; thioether N-17): the “Stability in human serum (undegraded portion/time)” value in data set [1] (2 h) was 71%/2 h. In addition, in data set [2] (Table 10, c-Met-Fc), binding was put at a Kd of 5.4 nM and the kon came out at 2.3e+06 M⁻¹ s⁻¹.

In data set [1], `CC(C)C[C@@H]1NC(=O)[C@H](CC(N)=O)NC(=O)[C@H](Cc2c[nH]c3ccccc23)NC(=O)[C@H](C(C)C)NC(=O)[C@H](CCC(=O)O)NC(=O)[C@H](Cc2c[nH]cn2)NC(=O)[C@H]([C@@H](C)O)NC(=O)[C@H](CCCNC(=N)N)NC(=O)[C@H](CCCNC(=N)N)NC(=O)[C@H](CC(N)=O)NC(=O)[C@H](Cc2ccccc2)NC(=O)[C@H](CCC(N)=O)NC(=O)[C@H](CCCNC(=N)N)N(C)C(=O)[C@@H](Cc2ccc(O)cc2)NC(=O)CSC[C@@H](C(=O)NCC(N)=O)NC(=O)[C@H](CC(=O)O)NC1=O` [Peptide N2] ({CH2CO}-[dY][NMeR]QFNRRTHEVWNLDCG-NH2; thioether N-16; C-terminus assumed) had a fraction remaining at 1 h, 1 μM of 5.4%. Also, in data set [2] (Table 8, c-Met-Fc), the kd is 1.0 10^−2 s^−1 and the kon came out at 710000 M⁻¹ s⁻¹.

Regarding `CC(C)C[C@@H]1NC(=O)[C@H](CC(N)=O)NC(=O)[C@H](Cc2c[nH]c3ccccc23)NC(=O)[C@H](C(C)C)NC(=O)[C@H](CCC(=O)O)NC(=O)[C@H](Cc2c[nH]cn2)NC(=O)[C@H]([C@@H](C)O)NC(=O)[C@H](CCCNC(=N)N)NC(=O)[C@H](CCCNC(=N)N)NC(=O)[C@H](CC(N)=O)NC(=O)[C@H](Cc2ccccc2)N(C)C(=O)[C@H](CCC(N)=O)NC(=O)[C@H](CCCNC(=N)N)NC(=O)[C@@H](Cc2ccc(O)cc2)NC(=O)CSC[C@@H](C(=O)NCC(N)=O)NC(=O)[C@H](CC(=O)O)NC1=O` [Peptide N4] ({CH2CO}-[dY]RQ[NMeF]NRRTHEVWNLDCG-NH2; thioether N-16; C-terminus assumed), in data set [1], the amount remaining at 1 h, 1 μM worked out at 21.1%. Also, in data set [2] (Table 8, c-Met-Fc), the kd is listed as 0.96 10^−2 s^−1 and the kon came out at 120000 M⁻¹ s⁻¹.

Regarding `CC(C)C[C@@H]1NC(=O)[C@H](CC(N)=O)NC(=O)[C@H](Cc2c[nH]c3ccccc23)NC(=O)[C@H](C(C)C)NC(=O)[C@H](CCC(=O)O)NC(=O)[C@H](Cc2c[nH]cn2)NC(=O)[C@H]([C@@H](C)O)NC(=O)[C@H](CCCNC(=N)N)NC(=O)[C@H](CCCNC(=N)N)N(C)C(=O)[C@H](CC(N)=O)NC(=O)[C@H](Cc2ccccc2)NC(=O)[C@H](CCC(N)=O)NC(=O)[C@H](CCCNC(=N)N)NC(=O)[C@@H](Cc2ccc(O)cc2)NC(=O)CSC[C@@H](C(=O)NCC(N)=O)NC(=O)[C@H](CC(=O)O)NC1=O` [Peptide N6] ({CH2CO}-[dY]RQFN[NMeR]RTHEVWNLDCG-NH2; thioether N-16; C-terminus assumed), in data set [1], the share remaining at 1 h, 1 μM turned out to be 85% and the “Stability in serum (in words)” value is reported as “drastically improved”. The share remaining at 4 h, 1 μM in data set [1] (4 h) worked out at 67%. Also, the “Binding ability (in words)” value in data set [2] is listed as “do not show marked deterioration”. In data set [2] (Table 8, c-Met-Fc), the kd was 0.41 10^−2 s^−1 and the kon turned out to be 120000 M⁻¹ s⁻¹. In data set [2] (Table 9, c-Met-Fc), the ka is 1.2 10^5 M^−1s^−1 and the kd is reported as 0.41 10^−2s^−1.

Turning to `CC(C)C[C@@H]1NC(=O)[C@H](CC(N)=O)NC(=O)[C@H](Cc2c[nH]c3ccccc23)NC(=O)[C@H](C(C)C)NC(=O)[C@H](CCC(=O)O)NC(=O)[C@H](Cc2c[nH]cn2)NC(=O)[C@H]([C@@H](C)O)NC(=O)[C@H](CCCNC(=N)N)N(C)C(=O)[C@H](CCCNC(=N)N)NC(=O)[C@H](CC(N)=O)NC(=O)[C@H](Cc2ccccc2)NC(=O)[C@H](CCC(N)=O)NC(=O)[C@H](CCCNC(=N)N)NC(=O)[C@@H](Cc2ccc(O)cc2)NC(=O)CSC[C@@H](C(=O)NCC(N)=O)NC(=O)[C@H](CC(=O)O)NC1=O` [Peptide N7] ({CH2CO}-[dY]RQFNR[NMeR]THEVWNLDCG-NH2; thioether N-16; C-terminus assumed), in data set [1], the fraction remaining at 1 h, 1 μM is 92% and the “Stability in serum (in words)” value is on record as “drastically improved”. Moreover, the “Binding ability (in words)” value in data set [2] is on record as “do not show marked deterioration”. Besides, in data set [2] (Table 8, c-Met-Fc), the kd is given as 6.9 10^−2 s^−1 and the kon came to 53000 M⁻¹ s⁻¹.

In the case of `CC(C)C[C@@H]1NC(=O)[C@H](CC(N)=O)NC(=O)[C@H](Cc2c[nH]c3ccccc23)NC(=O)[C@H](C(C)C)NC(=O)[C@H](CCC(=O)O)NC(=O)[C@H](Cc2c[nH]cn2)NC(=O)[C@H]([C@@H](C)O)N(C)C(=O)[C@H](CCCNC(=N)N)NC(=O)[C@H](CCCNC(=N)N)NC(=O)[C@H](CC(N)=O)NC(=O)[C@H](Cc2ccccc2)NC(=O)[C@H](CCC(N)=O)NC(=O)[C@H](CCCNC(=N)N)NC(=O)[C@@H](Cc2ccc(O)cc2)NC(=O)CSC[C@@H](C(=O)NCC(N)=O)NC(=O)[C@H](CC(=O)O)NC1=O` [Peptide N8] ({CH2CO}-[dY]RQFNRR[NMeT]HEVWNLDCG-NH2; thioether N-16; C-terminus assumed), in data set [1], the share remaining at 1 h, 1 μM was 81% and the “Stability in serum (in words)” value is “drastically improved”. Moreover, in data set [2] (Table 8, c-Met-Fc), the kon is 27000 M⁻¹ s⁻¹.

In turn, `CC(C)C[C@@H]1NC(=O)[C@H](CC(N)=O)N(C)C(=O)[C@H](Cc2c[nH]c3ccccc23)NC(=O)[C@H](C(C)C)NC(=O)[C@H](CCC(=O)O)NC(=O)[C@H](Cc2c[nH]cn2)NC(=O)[C@H]([C@@H](C)O)NC(=O)[C@H](CCCNC(=N)N)NC(=O)[C@H](CCCNC(=N)N)NC(=O)[C@H](CC(N)=O)NC(=O)[C@H](Cc2ccccc2)NC(=O)[C@H](CCC(N)=O)NC(=O)[C@H](CCCNC(=N)N)NC(=O)[C@@H](Cc2ccc(O)cc2)NC(=O)CSC[C@@H](C(=O)NCC(N)=O)NC(=O)[C@H](CC(=O)O)NC1=O` [Peptide N13] ({CH2CO}-[dY]RQFNRRTHEVW[NMeN]LDCG-NH2; thioether N-16; C-terminus assumed) displayed a fraction remaining at 1 h, 1 μM in data set [1] of 4.5%. Also, the kon in data set [2] (Table 8, c-Met-Fc) amounted to 78000 M⁻¹ s⁻¹.
